Measured values published in article PMC11451537, “P2X7 receptors exhibit at least three modes of allosteric antagonism” (Science Advances, 2024).
Where two headings read alike, the source gives them in different places.

Molecular target: T1, rP2X7 (Rattus norvegicus, UniProt Q64663)
T1 sequence (Q64663 1-595): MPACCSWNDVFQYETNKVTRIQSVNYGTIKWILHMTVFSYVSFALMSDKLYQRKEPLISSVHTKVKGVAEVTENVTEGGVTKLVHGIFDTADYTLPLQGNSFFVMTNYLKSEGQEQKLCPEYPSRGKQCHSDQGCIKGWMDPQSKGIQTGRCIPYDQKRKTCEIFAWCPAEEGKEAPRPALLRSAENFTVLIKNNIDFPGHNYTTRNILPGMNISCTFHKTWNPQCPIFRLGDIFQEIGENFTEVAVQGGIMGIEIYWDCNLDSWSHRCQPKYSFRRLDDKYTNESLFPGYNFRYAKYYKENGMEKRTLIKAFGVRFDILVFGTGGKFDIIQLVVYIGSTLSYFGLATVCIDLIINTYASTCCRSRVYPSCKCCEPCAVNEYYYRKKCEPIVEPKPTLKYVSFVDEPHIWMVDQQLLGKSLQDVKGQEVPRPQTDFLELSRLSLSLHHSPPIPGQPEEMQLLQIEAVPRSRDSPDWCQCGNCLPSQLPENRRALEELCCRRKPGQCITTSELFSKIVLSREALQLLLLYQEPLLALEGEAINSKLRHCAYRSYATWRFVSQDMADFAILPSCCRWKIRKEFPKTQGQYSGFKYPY
Assay: Bio-layer interferometry (BLI), biotinylated rP2X7 on streptavidin biosensors, 2:1 Langmuir fit
Assay type: binding
Conditions: for kon: pH 7.4, 2:1 Langmuir model, 600-s association
Description: Using a HiTrap desalting column (Cytiva), 1 ml of diluted purified rP2X7 was desalted into PBS buffer (pH 7.4). Protein-containing fractions were combined and concentrated before adjusting the pH to 8.0 with NaHCO3. NHS-PEG12-Biotin (Thermo Fisher Scientific) was added and incubated at 23°C for 60 min while shaking. PBS was used to dilute the biotinylated sample before four cycles of dilution and concentration to ensure the removal of free NHS-PEG12-Biotin via a 100-kDa concentrator (Millipore Sigma). After the final cycle, the absorbance at 280 nm of the concentrated sample was taken to quantify the amount of biotinylated rP2X7.
A ForteBio Octet RED384 instrument with ForteBio Data Acquisition software 11.0 was used to carry out BLI experiments. The assays were performed at 30°C using 384-well tilted-bottom plates (Sartorius) while orbital shaking at 1000 RPM. Running buffer consisting of filtered (0.22 μm) PBS (pH 7.4) with 0.5 mM DDM (Anatrace). Streptavidin (SA) biosensor tips (Sartorius) were pre-equilibrated in running buffer for 20 min and loaded with 50 μg ml^−1 of biotinylated rP2X7 ligand or biocytin (Sigma-Aldrich) control for 1800s. Blocking of the loaded SA sensors using 100 μg ml^−1 of biocytin was then initiated for 150 s before washing with a running buffer for 60 s. A baseline of loaded sensors was taken in the running buffer for 120 s before dipping them into wells containing ligand dilutions (0.37 to 10 μM for methyl blue) for 600 s, and then returning the sensors to the running buffer for a 600-s disassociation step. Rate constants for association and disassociation were determined using ForteBio Data Analysis HT 11.0 evaluation software. The raw data were double reference subtracted for maximal signal between the large ligand and small analyte. Biocytin controls were the first subtraction across analyte concentrations, and the zero-analyte concentration was the second. The association rate constant (ka) and the dissociation rate constant (kd) were calculated for each interaction pair using an average of three independent assays containing at least four different concentrations that were globally fit to a 2:1 Langmuir binding model. Equilibrium dissociation constants (KD) were calculated as the ratio of kd to ka. The KD1, KD2, ka1, ka2, kd1, and kd2 values are reported as the average ± the SD of three replicate datasets for each analyte, with each dataset using at least four independent traces. The analyzed data were exported and plotted in GraphPad Prism 9.0.

[1] = 2:1 Langmuir model, 600-s dissociation

O=S(=O)(O)c1ccc(N=C2C=CC(=C(c3ccc(Nc4ccc(S(=O)(=O)O)cc4)cc3)c3ccc(Nc4ccc(S(=O)(=O)O)cc4)cc3)C=C2)cc1 [methyl blue]
share of signal of the high-affinity component (KD1) (2:1 Langmuir model): 67 ± 8% | share of signal of the low-affinity component (KD2) (2:1 Langmuir model): 33 ± 8% | Kd (2:1 Langmuir model, 30°C, PBS pH 7.4 with 0.5 mM DDM, ratio of kd to ka, read-out: KD1 (high-affinity binding component)): 260 ± 130 nM | rate constant for dissociation kd1 [1]: 1.1 ± 0.5 × 10^−4 s^−1 | rate constant for dissociation kd2 [1]: 1.3 ± 0.1 × 10^−2 s^−1 | kon (read-out: rate constant for association ka1): 450 ± 2000 M⁻¹ s⁻¹ | kon (read-out: rate constant for association ka2): 9300 ± 2.3e+06 M⁻¹ s⁻¹ | Kd (read-out: KD2 (low-affinity binding component), 2:1 Langmuir model, 30°C, PBS pH 7.4 with 0.5 mM DDM, ratio of kd to ka): 1500 ± 200 nM
